Results taken from patent US7223834B2, “Assays and peptide substrate for determining aggrecan degrading metallo protease activity” (Bristol-Myers Squibb Pharma Company, priority 1997, dated 2007).

Tested on: ADMP
Details: GLU to GLN substitution at position 373 (P1)

In the case of “QTVTWPDMELPLPRNITEGQARGSVILTVK-Biotin [30-IP]”, the “mode of inhibition of the enzyme” value is reported as “competitive inhibitor”.
